Key:
PknE = PknE (Mycobacterium tuberculosis, UniProt P9WI77)
PknD (GST-PknD) = PknD (GST-PknD) (Mycobacterium tuberculosis, UniProt P9WI79)
PknA = PknA (Mycobacterium tuberculosis, UniProt P9WI83)
PknH = PknH (Mycobacterium tuberculosis, UniProt P9WI71)
PknJ = PknJ (Mycobacterium tuberculosis, UniProt P9WI67)
PknG = PknG (Mycobacterium tuberculosis, UniProt P9WI73)
Sequence of PknG (P9WI73 whole entry): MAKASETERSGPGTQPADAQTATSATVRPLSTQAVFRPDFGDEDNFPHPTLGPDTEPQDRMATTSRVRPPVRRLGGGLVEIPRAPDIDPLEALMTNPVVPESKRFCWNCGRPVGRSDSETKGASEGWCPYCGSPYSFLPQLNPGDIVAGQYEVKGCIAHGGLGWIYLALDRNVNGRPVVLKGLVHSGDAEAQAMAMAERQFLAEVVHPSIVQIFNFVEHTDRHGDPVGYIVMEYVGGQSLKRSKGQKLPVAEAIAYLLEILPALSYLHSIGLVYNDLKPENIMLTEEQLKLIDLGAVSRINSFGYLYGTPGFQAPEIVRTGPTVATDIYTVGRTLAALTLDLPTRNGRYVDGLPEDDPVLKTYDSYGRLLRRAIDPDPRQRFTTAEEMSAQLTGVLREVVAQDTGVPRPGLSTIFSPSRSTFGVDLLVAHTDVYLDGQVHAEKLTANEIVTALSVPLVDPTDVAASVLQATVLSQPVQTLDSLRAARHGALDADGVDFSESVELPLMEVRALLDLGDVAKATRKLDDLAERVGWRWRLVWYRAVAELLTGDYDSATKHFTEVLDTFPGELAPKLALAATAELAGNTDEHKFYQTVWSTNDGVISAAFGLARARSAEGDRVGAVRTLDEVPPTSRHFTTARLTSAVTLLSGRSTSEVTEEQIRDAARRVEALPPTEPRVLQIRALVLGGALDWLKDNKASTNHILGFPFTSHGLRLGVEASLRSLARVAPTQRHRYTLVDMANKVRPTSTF

Sequence of PknE (P9WI77 whole entry): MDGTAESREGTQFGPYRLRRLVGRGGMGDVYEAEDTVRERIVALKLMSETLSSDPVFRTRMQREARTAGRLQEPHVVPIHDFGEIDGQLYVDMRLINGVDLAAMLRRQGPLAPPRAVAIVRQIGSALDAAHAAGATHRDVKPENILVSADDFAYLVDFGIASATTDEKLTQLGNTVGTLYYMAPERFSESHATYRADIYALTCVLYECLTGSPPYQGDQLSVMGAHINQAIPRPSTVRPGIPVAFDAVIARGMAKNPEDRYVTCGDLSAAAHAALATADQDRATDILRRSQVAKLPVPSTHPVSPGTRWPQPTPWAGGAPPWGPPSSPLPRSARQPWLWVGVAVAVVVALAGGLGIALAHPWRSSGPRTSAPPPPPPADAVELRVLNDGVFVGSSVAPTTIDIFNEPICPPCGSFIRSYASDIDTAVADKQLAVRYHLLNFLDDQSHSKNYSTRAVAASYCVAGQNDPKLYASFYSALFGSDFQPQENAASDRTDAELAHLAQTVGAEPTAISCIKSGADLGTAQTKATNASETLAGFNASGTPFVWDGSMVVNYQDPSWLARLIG
Sequence of PknH (P9WI71 whole entry): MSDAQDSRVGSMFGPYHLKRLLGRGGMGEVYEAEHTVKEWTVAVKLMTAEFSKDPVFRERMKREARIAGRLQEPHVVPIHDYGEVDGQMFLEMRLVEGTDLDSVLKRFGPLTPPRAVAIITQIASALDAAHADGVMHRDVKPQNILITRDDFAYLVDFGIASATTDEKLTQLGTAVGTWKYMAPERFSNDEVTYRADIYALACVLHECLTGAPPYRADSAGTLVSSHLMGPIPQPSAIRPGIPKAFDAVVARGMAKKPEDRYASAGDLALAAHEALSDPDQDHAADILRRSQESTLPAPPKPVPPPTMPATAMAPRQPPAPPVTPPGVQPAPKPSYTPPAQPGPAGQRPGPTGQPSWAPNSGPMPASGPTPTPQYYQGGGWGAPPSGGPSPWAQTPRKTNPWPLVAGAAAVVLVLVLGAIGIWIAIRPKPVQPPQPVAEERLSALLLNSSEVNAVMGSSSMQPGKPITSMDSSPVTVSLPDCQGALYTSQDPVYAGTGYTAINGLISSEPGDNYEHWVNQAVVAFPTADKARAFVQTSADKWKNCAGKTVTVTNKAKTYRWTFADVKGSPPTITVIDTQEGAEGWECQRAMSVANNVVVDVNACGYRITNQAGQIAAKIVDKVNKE
Sequence of PknA (P9WI83 whole entry): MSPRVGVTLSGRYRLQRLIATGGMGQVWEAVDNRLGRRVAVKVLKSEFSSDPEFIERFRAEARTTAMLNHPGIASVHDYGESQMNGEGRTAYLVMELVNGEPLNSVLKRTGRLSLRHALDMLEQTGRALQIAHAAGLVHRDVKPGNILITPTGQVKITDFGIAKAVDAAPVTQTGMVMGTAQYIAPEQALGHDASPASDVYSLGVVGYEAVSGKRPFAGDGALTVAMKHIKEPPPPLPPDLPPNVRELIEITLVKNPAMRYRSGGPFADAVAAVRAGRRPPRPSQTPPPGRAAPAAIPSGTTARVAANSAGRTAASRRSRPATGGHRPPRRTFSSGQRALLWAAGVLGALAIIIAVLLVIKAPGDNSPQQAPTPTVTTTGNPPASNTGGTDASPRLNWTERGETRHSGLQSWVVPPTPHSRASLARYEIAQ
Sequence of PknD (GST-PknD) (P9WI79 whole entry): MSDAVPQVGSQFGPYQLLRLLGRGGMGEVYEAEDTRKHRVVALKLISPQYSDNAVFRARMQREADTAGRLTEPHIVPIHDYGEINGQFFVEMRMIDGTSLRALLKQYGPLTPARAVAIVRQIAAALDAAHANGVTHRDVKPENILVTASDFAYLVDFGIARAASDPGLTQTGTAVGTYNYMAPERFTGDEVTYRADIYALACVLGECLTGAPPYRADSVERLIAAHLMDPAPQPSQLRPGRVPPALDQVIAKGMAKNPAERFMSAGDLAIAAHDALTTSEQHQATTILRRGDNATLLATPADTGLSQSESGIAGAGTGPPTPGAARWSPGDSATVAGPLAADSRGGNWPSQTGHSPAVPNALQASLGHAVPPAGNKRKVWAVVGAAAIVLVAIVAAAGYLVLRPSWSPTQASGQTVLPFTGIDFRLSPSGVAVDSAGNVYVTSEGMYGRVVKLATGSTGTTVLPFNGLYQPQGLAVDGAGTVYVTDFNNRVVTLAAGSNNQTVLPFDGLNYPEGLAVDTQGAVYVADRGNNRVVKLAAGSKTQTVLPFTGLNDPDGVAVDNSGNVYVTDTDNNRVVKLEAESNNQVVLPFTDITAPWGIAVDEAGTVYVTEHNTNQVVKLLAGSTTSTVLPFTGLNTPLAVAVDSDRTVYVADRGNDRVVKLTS
Sequence of PknJ (P9WI67 whole entry): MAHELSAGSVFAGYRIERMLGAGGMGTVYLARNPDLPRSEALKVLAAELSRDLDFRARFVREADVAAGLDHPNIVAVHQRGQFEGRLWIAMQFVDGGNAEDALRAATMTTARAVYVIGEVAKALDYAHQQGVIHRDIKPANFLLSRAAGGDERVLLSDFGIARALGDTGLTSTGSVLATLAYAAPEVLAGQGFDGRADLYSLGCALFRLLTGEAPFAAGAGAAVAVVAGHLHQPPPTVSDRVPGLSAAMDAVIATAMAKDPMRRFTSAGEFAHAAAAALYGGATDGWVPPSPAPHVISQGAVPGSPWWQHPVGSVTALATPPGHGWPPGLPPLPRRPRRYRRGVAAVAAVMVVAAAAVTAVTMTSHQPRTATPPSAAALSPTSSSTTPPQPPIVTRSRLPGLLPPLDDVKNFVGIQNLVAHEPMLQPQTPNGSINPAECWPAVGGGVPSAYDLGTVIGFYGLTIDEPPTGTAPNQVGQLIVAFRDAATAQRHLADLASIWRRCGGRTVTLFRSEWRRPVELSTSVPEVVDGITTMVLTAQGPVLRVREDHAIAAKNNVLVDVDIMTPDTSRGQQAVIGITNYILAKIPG

## Nc1ncnc2c1ncn2[C@@H]1O[C@H](COP(=O)(O)OP(=O)(O)OP(=O)(O)O)[C@@H](O)[C@H]1O [[γ-^33P]ATP]
PknE
  in vitro radiolabelled phosphorylation, SDS-PAGE autoradiography: PknA, PknD, PknE, PknG, PknH and PknJ phosphorylated the (His)6-MDH
PknD (GST-PknD)
  in vitro radiolabelled phosphorylation, SDS-PAGE autoradiography: the MDH was phosphorylated by PknD, but could not be autophosphorylated
PknA
  in vitro radiolabelled phosphorylation, SDS-PAGE autoradiography: PknA, PknD, PknE, PknG, PknH and PknJ phosphorylated the (His)6-MDH
PknH
  in vitro radiolabelled phosphorylation, SDS-PAGE autoradiography: PknA, PknD, PknE, PknG, PknH and PknJ phosphorylated the (His)6-MDH
PknJ
  in vitro radiolabelled phosphorylation, SDS-PAGE autoradiography: PknA, PknD, PknE, PknG, PknH and PknJ phosphorylated the (His)6-MDH
PknG
  in vitro radiolabelled phosphorylation, SDS-PAGE autoradiography: PknA, PknD, PknE, PknG, PknH and PknJ phosphorylated the (His)6-MDH

Source: article PMC4393303 (PLoS ONE, 2015)
